Assay results reported in ChEMBL document CHEMBL1146262, “Novel thiazolones as HCV NS5B polymerase allosteric inhibitors: Further designs, SAR, and X-ray complex structure” (Bioorg Med Chem Lett, 2007).

Experiment: Inhibition of HCV NS5B polymerase by RdRp-catalyzed elongation assay
Parameters: species or system Hepacivirus hominis

SMILES | IC50 [µM]
CCc1ccc(/C=C2\SC(NC(C(=O)O)c3ccc4ccccc4c3)=NC2=O)o1 (stereo not drawn) | 14
CCc1ccc(/C=C2\SC(NC(C(=O)O)c3ccc(C)cc3C)=NC2=O)o1 (stereo not drawn) | 12
CCc1ccc(/C=C2\SC(NC(C(=O)NO)c3ccc(Cl)cc3Cl)=NC2=O)o1 (stereo not drawn) | 5.5
CCc1ccc(/C=C2\SC(NC(c3ccccc3)c3nn[nH]n3)=NC2=O)o1 (stereo not drawn) | 19
CCc1ccc(/C=C2\SC(NC(C(=O)O)C3(C)CCCC3)=NC2=O)o1 (stereo not drawn) | > 100
CCc1ccc(/C=C2\SC(NC(c3ccc(C)cc3)c3nn[nH]n3)=NC2=O)o1 (stereo not drawn) | 14
CCc1ccc(/C=C2\SC(NC(Cc3ccccc3)C(=O)O)=NC2=O)o1 (stereo not drawn) | 68
CCc1ccc(/C=C2\SC(NC(C(=O)O)c3ccc(Cl)cc3Cl)=NC2=O)o1 (stereo not drawn) | 7.6
CCc1ccc(/C=C2\SC(N[C@H](CC(=O)O)c3ccc(C#N)cc3)=NC2=O)o1 (stereo in doubt) | > 100
CCc1ccc(/C=C2\SC(N[C@H](CC(=O)O)c3ccc(C)cc3)=NC2=O)o1 (stereo in doubt) | 27
CCc1ccc(/C=C2\SC(N[C@H](C(=O)O)C3CCCCC3)=NC2=O)o1 (stereo in doubt) | 25
CCc1ccc(/C=C2\SC(N[C@H](CC(=O)O)c3cccnc3)=NC2=O)o1 (stereo in doubt) | > 100
CCc1ccc(/C=C2\SC(N[C@H](CC(=O)O)c3ccccc3)=NC2=O)o1 (stereo in doubt) | 59
CCc1ccc(/C=C2\SC(N[C@@H](CC(=O)O)c3ccc(Cl)cc3Cl)=NC2=O)o1 (stereo in doubt) | 9
CCc1ccc(/C=C2\SC(N[C@H](CC(=O)O)c3ccc(Cl)cc3Cl)=NC2=O)o1 (stereo in doubt) | 8.5
CCc1ccc(/C=C2\SC(N[C@H](CC(=O)O)c3ccc(Br)cc3)=NC2=O)o1 (stereo in doubt) | 16.5
CCc1ccc(/C=C2\SC(N[C@H](Cc3nn[nH]n3)c3ccccc3)=NC2=O)o1 (stereo in doubt) | 24
CCc1ccc(/C=C2\SC(N[C@@H](CC(=O)O)c3ccc(F)cc3)=NC2=O)o1 (stereo in doubt) | 13
CCc1ccc(/C=C2\SC(N[C@H](CC(=O)O)c3ccc(F)cc3)=NC2=O)o1 (stereo in doubt) | 44

The next lines start with the values.

IC50 [µM] | SMILES
6 | CCc1ccc(/C=C2\SC(NC(C(=O)O)c3ccc(Br)cc3)=NC2=O)o1 (stereo not drawn)
21 | CCc1ccc(/C=C2\SC(NC(C(=O)O)c3ccc(C(F)(F)F)cc3)=NC2=O)o1 (stereo not drawn)
24 | CCc1ccc(/C=C2\SC(NC(C(=O)O)c3ccc(F)c(Cl)c3)=NC2=O)o1 (stereo not drawn)
11 | CCc1ccc(/C=C2\SC(NC(C(=O)O)c3ccc(C)cc3)=NC2=O)o1 (stereo not drawn)
3 | CCc1ccc(/C=C2\SC(N[C@H](C(=O)O)c3ccc(F)cc3)=NC2=O)o1 (stereo in doubt)
55 | CCc1ccc(/C=C2\SC(N[C@H](C(=O)O)c3ccccc3)=NC2=O)o1 (stereo in doubt)
16 | CCc1ccc(/C=C2\SC(N[C@H](C(N)=O)c3ccc(F)cc3)=NC2=O)o1 (stereo in doubt)
43 | CCc1ccc(/C=C2\SC(N[C@H](C(=O)O)c3ccc(O)cc3)=NC2=O)o1 (stereo in doubt)
50 | CCc1ccc(/C=C2\SC(N[C@@H](C(=O)O)c3ccc(F)cc3)=NC2=O)o1 (stereo in doubt) [VALEANT]
